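Step 1: Grow cells in 96-well plates. Step 2: Expose to compound for 48 hours at 5 concentrations. Step 3: Interpolate endpoints linearly; if unreached, use highest concentration. GI50 = concentration required for 50% inhibition of growth. TGI denotes the concentration required for complete inhibition of growth.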

Some test systems named below: NCI-H23 lung; SK-MEL-28 melanoma; MDA-N; A498 renal; HS 578T breast; HT29 colon; CCRF-CEM leukemia; T-47D breast; HOP-62 NSCLC; HCC-2998 colon; LOX IMVI melanoma; SNB-75 CNS; SF-539 CNS; HL-60(TB) leukemia; BT-549 breast.
Common to all, as to test: NCI-60 cell line screen, 48 h

Regarding `COC(=O)c1cccc(C)c1C1CN=NC12Cc1c(ccc(C)c1C)C2=O` (stereo not drawn), the TGI with NCI-H23 lung, with SK-MEL-28 melanoma, with MDA-N, with A498 renal, with HS 578T breast and with HT29 colon was greater than 100 µM each time. Also, the TGI in the assay on CCRF-CEM leukemia is greater than 100 µM; in the assay with T-47D breast, 25.1 µM; in the assay on HOP-62 NSCLC it was greater than 100 µM; in the assay on HCC-2998 colon it was greater than 100 µM; in the assay on LOX IMVI melanoma, greater than 100 µM; in the assay on SNB-75 CNS, greater than 100 µM. The results for the TGI in the assay with SF-539 CNS and in the assay with HL-60(TB) leukemia were greater than 100 µM and 37.1 µM, respectively.
With `CC(=O)/C(=C/N1C(=O)CC(=O)NC1=S)C(=O)Nc1ccccc1C`, the TGI with NCI-H23 lung was greater than 100 µM; with SK-MEL-28 melanoma it was greater than 100 µM; with MDA-N it was greater than 100 µM; in the assay on A498 renal it was greater than 100 µM; in the assay on BT-549 breast, greater than 100 µM; in the assay on HT29 colon, 53.5 µM. Also, the TGI was greater than 100 µM with T-47D breast; 64.2 µM with HOP-62 NSCLC; 84.7 µM with HCC-2998 colon; greater than 100 µM in the assay on LOX IMVI melanoma; greater than 100 µM in the assay with SNB-75 CNS; greater than 100 µM in the assay on SF-539 CNS. The TGI in the assay with HL-60(TB) leukemia was greater than 100 µM.
As for `CO[C@H]1C[C@@H]2CC[C@@H](C)[C@@](O)(O2)C(=O)C(=O)N2CCCC[C@H]2C(=O)O[C@H]([C@H](C)C[C@@H]2CC[C@@H](OC(=O)C(C)(CO)CO)[C@H](OC)C2)CC(=O)[C@H](C)/C=C(\C)[C@@H](O)[C@@H](OC)C(=O)[C@H](C)C[C@H](C)/C=C/C=C/C=C/1C`, the GI50 in the assay with NCI-H23 lung is 1.34 µM; in the assay on HT29 colon, 0.182 µM; in the assay with HOP-62 NSCLC, less than 0.0202 µM; with HCC-2998 colon, 0.00154 µM. Also, the TGI in the assay with NCI-H23 lung was greater than 100 µM; with SK-MEL-28 melanoma, greater than 100 µM; with MDA-N, greater than 73.4 µM; with HS 578T breast, 17.2 µM; in the assay on HT29 colon, greater than 100 µM; in the assay with T-47D breast, greater than 100 µM. In addition, the TGI was greater than 100 µM in the assay on HOP-62 NSCLC; greater than 46.9 µM in the assay on HCC-2998 colon; greater than 75.9 µM with LOX IMVI melanoma; 24.4 µM in the assay with SNB-75 CNS; 5.23 µM with SF-539 CNS; 6.31 µM with HL-60(TB) leukemia.
As to `CC1=C/C(=N\N(C)C)C(C(O)(C(F)(F)F)C(F)(F)F)C(C)(C)C1` (stereo not drawn), the TGI in the assay on NCI-H23 lung, in the assay with SK-MEL-28 melanoma, in the assay on MDA-N, in the assay on A498 renal, in the assay on HS 578T breast and with HT29 colon was greater than 100 µM each time. Besides, the TGI in the assay on CCRF-CEM leukemia, in the assay with T-47D breast, in the assay with HOP-62 NSCLC, in the assay with HCC-2998 colon, in the assay on LOX IMVI melanoma and with SNB-75 CNS was greater than 100 µM in each case. The TGI in the assay on SF-539 CNS and in the assay on HL-60(TB) leukemia was greater than 100 µM each time.
`CC1(C)C[C@H]2C3=CC[C@@H]4[C@@]5(C)CC[C@H](O)C(C)(C)[C@@H]5CC[C@@]4(C)[C@]3(C)C[C@@H](O)[C@@]23C[C@@H]1OC3=O`: the TGI in the assay with NCI-H23 lung, in the assay with SK-MEL-28 melanoma, in the assay with A498 renal, with HS 578T breast, in the assay with HT29 colon and in the assay with CCRF-CEM leukemia was greater than 100 µM each time. Besides, the TGI in the assay with T-47D breast, in the assay on HOP-62 NSCLC, in the assay on HCC-2998 colon, in the assay on LOX IMVI melanoma, with SNB-75 CNS and in the assay with SF-539 CNS was greater than 100 µM each time. The compound further showed a TGI with HL-60(TB) leukemia greater than 100 µM.
On to `CC1=C(N(C)C)C(=O)c2nc3n(c2C1=O)CCC3OC(N)=O` (stereo not drawn), for which the TGI turned out to be 28.5 µM with NCI-H23 lung; 34.4 µM in the assay with SK-MEL-28 melanoma; 26.6 µM in the assay on A498 renal; 35.6 µM in the assay on HT29 colon; 42.8 µM with CCRF-CEM leukemia; 31.6 µM with HOP-62 NSCLC. Besides, the TGI with HCC-2998 colon came to 34.7 µM; in the assay with LOX IMVI melanoma, 25.7 µM; with SNB-75 CNS, 42.5 µM; in the assay with SF-539 CNS it was 31.8 µM; in the assay with HL-60(TB) leukemia, 31.6 µM.
Turning to `Nc1ccccc1C(=O)NNC(=O)c1ccccc1N`, the TGI in the assay with NCI-H23 lung, in the assay on SK-MEL-28 melanoma, in the assay with MDA-N, in the assay with A498 renal, in the assay with HT29 colon and with CCRF-CEM leukemia was greater than 100 µM in each case. Further, the TGI with T-47D breast, with HOP-62 NSCLC, in the assay on HCC-2998 colon, with LOX IMVI melanoma, with SNB-75 CNS and in the assay on SF-539 CNS was greater than 100 µM in each case. This compound yielded a TGI in the assay on HL-60(TB) leukemia greater than 100 µM.
With `Cc1nc2c(s/c(=N\N)n2-c2ccccc2)c(=O)[nH]1`, the TGI in the assay with NCI-H23 lung, in the assay with SK-MEL-28 melanoma, in the assay on A498 renal, in the assay on HT29 colon, with CCRF-CEM leukemia and with HOP-62 NSCLC was greater than 100 µM each time. For the same compound, the TGI in the assay with HCC-2998 colon, with LOX IMVI melanoma, in the assay on SNB-75 CNS, in the assay on SF-539 CNS and in the assay with HL-60(TB) leukemia was greater than 100 µM each time.
As to `CCOC(=O)C1C(C(C)C)C2(C#N)C(=N)OC1(C)C2(C#N)C#N` (stereo not drawn), the TGI is greater than 100 µM in the assay with NCI-H23 lung; greater than 100 µM in the assay with SK-MEL-28 melanoma; 33.6 µM in the assay on MDA-N; greater than 100 µM with A498 renal; greater than 100 µM in the assay with HS 578T breast; greater than 100 µM in the assay on HT29 colon. Further, the TGI in the assay on CCRF-CEM leukemia was greater than 100 µM; in the assay on T-47D breast, greater than 100 µM; in the assay with HCC-2998 colon it was greater than 100 µM; with LOX IMVI melanoma, greater than 100 µM; in the assay on SNB-75 CNS, 74.4 µM; in the assay on SF-539 CNS, greater than 100 µM. The compound further yielded a TGI with HL-60(TB) leukemia greater than 100 µM.
Consider `CC/C(=C/OC)P1(=O)OC(C)(C)CN1C(C)(C)C` (stereo not drawn), for which the TGI with NCI-H23 lung, in the assay with A498 renal, in the assay on BT-549 breast, in the assay with HT29 colon, with T-47D breast and in the assay with HOP-62 NSCLC was greater than 100 µM throughout. The TGI with HCC-2998 colon, in the assay on LOX IMVI melanoma and in the assay with SF-539 CNS was greater than 100 µM in each case.
Turning to `Cc1c(C(=O)Nc2ccc(Cl)c(C(F)(F)F)c2)oc2cc(O)ccc2/c1=N\NC(N)=S`, the TGI with NCI-H23 lung, in the assay with SK-MEL-28 melanoma, with A498 renal, with HT29 colon, with CCRF-CEM leukemia and in the assay on HOP-62 NSCLC was greater than 100 µM in each case. Further, the TGI in the assay on HCC-2998 colon, with LOX IMVI melanoma, in the assay on SNB-75 CNS, in the assay with SF-539 CNS and in the assay on HL-60(TB) leukemia was greater than 100 µM each time.

For the origin of these results see PubChem BioAssay (NCI).
